Data reported in US20130005759A1, “SMALL MOLECULE MODIFIERS OF MICRORNA MIR-122” (North Carolina State University, priority 2010, published 2013).
In the oligonucleotide strings, read from the 5' end, every base follows the letter of its sugar. An asterisk marks phosphorothioate; unmarked linkages are phosphodiester. Other units and linkages are bracketed, terminal groups are in braces. A string of capitals states the bases alone. m = 2'-O-methyl

Legend:
miR-122 = test: psiCHECK-miR122 dual luciferase reporter assay in Huh7 cells; type: cell-based, human; conditions: for miR-122 inhibitory activity (structure-activity, in words) / miR-122 activation (structure-activity, in words): Huh7, 10 μM; for miR-122 inhibitory activity (structure-activity, in words): relative to parent inhibitor 1 or 2; for miR-122 activation (structure-activity, in words): relative to parent activator 3
Excerpt: A miRNA small molecule modifier screen for miR-122 was developed based on the psiCHECK-2 (Promega) reporter plasmid (FIG. 9). This construct expresses both Renilla luciferase as well as firefly luciferase, allowing for the normalization of the signal to account for differential cellular viability and variability in transfection efficiency. The miR-122 target sequence was inserted downstream of the Renilla luciferase gene, between the PmeI and SgfI restriction sites. In another aspect of the invention, plasmids expressing luciferase or another reporter gene such as for example, fluorescent reporters (GFP and variants thereof, DsRed, etc.) or beta-galactosidase can be used to screen for small molecule modifiers of miR-122. The mi-122 target sequence may be upstream or downstream of the reporter gene. Multiple miR-122 target sites can also be inserted into or be present in the plasmid.
The presence of mature miR-122 will lead to a decrease in the Renilla luciferase signal (FIG. 1a). The ability to detect endogenous miR-122 was validated by transfecting the generated psiCHECK-miR122 construct into Huh7 and HeLa cells. After 48 hour incubation, the cells were assayed using a Dual Luciferase Assay Kit (Promega). In another embodiment, the cells can be incubated for about 24-96 hours. The Dual Luciferase Assay Kit provides a means to measure the amount of the luciferases by generating a luminescent signal. Using this assay the luminescence from the firefly luciferase reaction may be quenched while the luminescent reaction of Renilla luciferase can be activated. Other assays and procedures that can determine the amount of the one or more reporter genes or miR-122 expression, activity or function can be used. An example of another assay is Dual-Glo Assay (Promega).
The psiCHECK-miR122 vector was then employed in a small molecule screen in Huh7 cells to discover modifiers of miR-122 function. Other cells that express miR-122 such as HepG2 and Hep3B can be used in addition to or instead of Huh7 cells. An increase in the relative Renilla luciferase signal indicates a miR-122 inhibitor, while a reduction in the luciferase signal indicates a miR-122 activator. A genus of compounds that may have activity as modifiers of miR122 function are the Diversity Set II (1364 compounds) from the NCI Developmental Therapeutics Program was screened using Huh7 cells containing the psiCHECK-miR122 reporter. Cells were exposed to the small molecules and the relative luciferase signal was measured after 48 hours using a Dual Luciferase Assay Kit (Promega). In another embodiment the cells can be exposed to the small molecules for about 24-96 hours. As explained above, other assays and procedures that can determine the amount of the one or more reporter genes or miR-122 expression, activity or function can be used.
The analogs were screened for activity using the previously described miR-122 assay. All cells were treated with 10 μM of a compound and experiments were performed in triplicate to ensure statistical validity. The data was normalized to a 1% DMSO control and is reported in relative luciferase units (RLU). The standard deviation was calculated from three independent assays. Some analogs of miR-122 inhibitor compound 1 are:
Huh7 and HeLa cells were transfected at approximately 60% confluency with either the psiCHECK-Control plasmid (the original psiCHECK-2 plasmid containing no known miRNA binding site) or the psiCHECK-miR122 plasmid (0.5 μg) using X-tremGENE transfection reagent (3:2 reagent/DNA ratio; Roche) in Opti-Mem media (Invitrogen). All transfections were performed in triplicate for statistical analysis. The cells were incubated at 37° C. for 4 hours followed by the replacement of transfection media with standard DMEM growth media. After 48 hours of incubation the media was removed, cells were lysed and assayed with a Dual Luciferase Assay Kit (Promega) using a Wallac VICTOR^3V luminometer with a measurement time of 1 s and a delay time of 2 s. […]

[1] = test system: hepatitis C virus (HCV) genotype 1a H77c RNA; test: HCV replication in Huh7 cells (HCV RNA by quantitative RT PCR); type: cell-based; conditions: Huh7, 10 μM (antagomir transfected), 48 hours
Experimental: Aberrantly regulated miR-122 is involved in the development of heptocellular carcinoma (HCC). miR-122 is a cellular component required by hepatitis C virus (HCV) for viral replication. […] Due to the efficient down-regulation of miRNA-122 by the small molecule inhibitors 1 and 2, both compounds were tested for their ability to inhibit HCV replication in Huh7 cells. The pHtat2Neo/QR/KR/FV/SI plasmid (provided by Dr. Stanley Lemon of University of Texas Medical Branch (UTMB)) was used to generate genotype 1a H77c RNA, which was subsequently transfected into Huh7 cells.^16 The cells were then either transfected with a miR-122 antagomir (positive control), or treated with compounds 1 and 2 (10 μM), or DMSO (negative control). After 48 hours, total RNA was isolated and HCV RNA levels were measured by quantitative RT PCR (FIG. 7). In agreement with previous reports, the antagomir reduced HCV RNA levels to 20%.^6 Moreover, the small molecule miR-122 inhibitors 1 and 2 elicited a reduction in viral load to 48% and 47%, respectively.
The pHtat2Neo/QR/KR/FV/SI plasmid (provided by Dr. Stanley Lemon)^16 was linearized using XbaI (10 units, 50 μL reaction; New England Biolabs), followed by transcription with T7 RNA Polymerase (6 h, 37° C.), and purification on Microcon 10 columns. Huh7 cells were then grown to 60% confluency in a 6 well plate and transfected with 1 μg RNA using X-tremGENE transfection reagent (Roche Applied Science, 3:2 reagent/RNA ratio) in Opti-Mem media (Invitrogen). After a 4 hour incubation at 37° C., the transfection media was removed and replaced with standard growth media (2 mL) supplemented with 10 μM of 1 or 2 (1% DMSO final concentration). All experiments were conducted in triplicate for statistical validation. […] Quantitative RT-PCR was then performed as previously described using the general HCV RT-PCR Primers (5′: […] 3′ (SEQ ID NO:7) and 5′ […] 3′) (SEQ ID NO:8) and GADPH primers (5′ […] 3′ (SEQ ID NO:9) and 5′ […] 3′) (SEQ ID NO:10) as a standard control.

[2] = test system: psiCHECK-control vector (no miRNA target sequence); test: psiCHECK-control vector luciferase counter-assay in Huh7 cells; type: cell-based, human; conditions: Huh7, 10 μM
Excerpt: (FIG. 3). […] The relative luciferase units were normalized to the corresponding DMSO signals. […] This confirms that compound 2 and the antagomir have similar effects on the reduction of miR-122 function in Huh7 cells.
Compounds which elicited greater than a 5-fold increase of the relative luciferase units signal compared to the DMSO control were then re-assayed in triplicate to confirm the validity of the hit compound. Upon secondary validation of miR-122 inhibition, identical assays were repeated with the psiCHECK-Control vector to ascertain that the effect is specific to the miR-122 pathway, and not simply affecting the Renilla gene. In order to assess the relative degree of miR-122 inhibition, Huh7 cells were also co-transfected with either the psiCHECK-Control plasmid or the psiCHECK-miR122 plasmid (0.5 μg) and a miR-122 2′-OMe PS antagomir (50 pmol; 5′ […] (SEQ ID NO:4) 3′; IDT DNA)(2) using the X-tremGENE transfection reagent (Roche Applied Science, 4:2 reagent/DNA ratio). The transfection media was replaced with standard DMEM growth media after 4 hours and the cells were incubated for 48 hours prior to analysis with a Dual Luciferase Assay Kit (FIG. 3).

Row | Compound | miR-122 inhibitory activity (structure-activity, in words) (miR-122) | further results
1 | O=C(NCc1ccc2ccccc2c1)c1ccc(Cl)cc1Cl [1e] | virtually complete loss of miR-122 inhibitory activity | –
2 | O=C(NCc1ccc2ccccc2c1)c1ccc(Cl)cc1Cl [1f] | virtually complete loss of miR-122 inhibitory activity | –
3 | O=C(Nc1ccccc1)c1ccc(Cl)cc1Cl [1g, 2,4-Dichloro-N-phenylbenzamide] | complete loss of miR-122 inhibitory activity | –
4 | Nc1ccc(NC(=O)c2ccc(Cl)cc2Cl)cc1 [1h, N-(4-Aminophenyl)-2,4-dichlorobenzamide] | complete loss of miR-122 inhibitory activity | –
5 | O=C(Nc1ccc(I)cc1)c1ccc(Cl)cc1Cl [1i, 2,4-Dichloro-N-(4-iodophenyl)benzamide] | complete loss of miR-122 inhibitory activity | –
6 | O=C(NCc1ccc2ccccc2c1)c1ccc(Cl)cc1Cl [1m] | substantial loss of activity | –
7 | O=S(=O)(c1ccc2c(c1)CCCN2)N1CCCc2ccccc21 [2b, 6-(3,4-Dihydroquinolin-1(2H)-ylsulfonyl)-1,2,3,4-tetrahydroquinoline] | loss of activity | –
8 | O=S(=O)(Nc1ccccc1)c1ccc2c(c1)CCCN2 [2c, N-Phenyl-1,2,3,4-tetrahydroquinoline-6-sulfonamide] | Activity was maintained | relative luciferase units (RLU) normalized to a DMSO control (miR-122; Huh7, psiCHECK-miR122, 10 μM, mean ± SD of three independent assays): 9.9±3.1 RLU
9 | Nc1ccc(NS(=O)(=O)c2ccc3c(c2)CCCN3)cc1 [2d, N-(4-Aminophenyl)-1,2,3,4-tetrahydroquinoline-6-sulfonamide] | lost | –
10 | CN(C)CCN1C(=O)c2cccc3cccc(c23)C1=O [3a, 2-(2-(Dimethylamino)ethyl)-1H-benzo[de]isoquinoline-1,3(2H)-dione] | – | miR-122 activation (structure-activity, in words) (miR-122): retention of activity
11 | NCCN1C(=O)c2cccc3cc(N)cc(c23)C1=O [3c, 5-Amino-2-(2-aminoethyl)-1H-benzo[de]isoquinoline-1,3(2H)-dione] | – | miR-122 activation (structure-activity, in words) (miR-122): increasing loss of activity
12 | Nc1cc2c3c(cccc3c1)C(=O)N(Cc1ccc3ccccc3c1)C2=O [3g, 5-amino-2-(naphthalen-2-ylmethyl)-1H-benzo[de] isoquinoline-1,3(2H)-dione] | – | miR-122 activation (structure-activity, in words) (miR-122): complete loss of miR-122 activation
13 | antagomir: miR-122 2′-OMe PS antagomir, 5′ ACAAACACCAUUGUCACACUCCA 3′ (SEQ ID NO:4), positive control (mA*mC*mA*mA*mA*mC*mA*mC*mC*mA*mU*mU*mG*mU*mC*mA*mC*mA*mC*mU*mC*mC*mA) [reference compound] | – | HCV RNA levels / viral load reduced to [1]: 20%; Renilla luciferase expression with psiCHECK-miR122 (in words) (miR-122; Huh7, 10 μM (antagomir transfected), normalized to DMSO): significant increase; normalized Renilla luciferase signal with psiCHECK-control vector [2]: no statistically significant alteration
